Data published in PubChem BioAssay AID330 (DTP/NCI, 2004).
Inconclusive results and toxic doses are left out. The calls were made as follows: active = survival T/C of 150% or more; inactive = T/C below 125% in these data.

Tested on: P388 leukemia ip, CD2F1 mice, survival T/C
Assay: NCI In Vivo Anticancer Drug Screen. Data for tumor model P388 Leukemia (intraperitoneal) in CD2F1 (CDF1) mice
Conditions: endpoint: median survival time, higher = longer survival
In short: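 Mice carrying the transplanted tumor received test compound or vehicle. Survival was recorded in each group, and the value is the treated-group measurement divided by that of the vehicle-treated control group.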

[1] = dose: 50.0 mg/kg/injection, schedule: Q01DX009 (ip), vehicle: Klucel (hydroxypropylcellulose) (HPC)
[2] = dose: 100.0 mg/kg/injection, schedule: Q01DX009 (ip), vehicle: Klucel (hydroxypropylcellulose) (HPC)
[3] = dose: 200.0 mg/kg/injection, schedule: Q01DX009 (ip), vehicle: Klucel (hydroxypropylcellulose) (HPC)

Measured: T/C

CS(=O)(=O)OCC(O)C(O)COS(C)(=O)=O (stereo unspecified)
inactive: dose: 50.0 mg/kg/injection, schedule: Q01DX001 (ip), vehicle: Klucel (hydroxypropylcellulose) (HPC) 106 % of control | dose: 100.0 mg/kg/injection, schedule: Q01DX001 (ip), vehicle: Klucel (hydroxypropylcellulose) (HPC) 110 % of control | dose: 100.0 mg/kg/injection, schedule: Q01DX001 (ip), vehicle: saline 100 % of control | dose: 100.0 mg/kg/injection, schedule: Q01DX001 (oral), vehicle: saline 100 % of control | dose: 100.0 mg/kg/injection, schedule: Q01DX009 (oral), vehicle: saline 104 % of control | dose: 100.0 mg/kg/injection, schedule: Q03HX008 (ip), vehicle: saline 100 % of control | dose: 100.0 mg/kg/injection, schedule: Q03HX016 (ip), vehicle: saline 100 % of control | dose: 100.0 mg/kg/injection, schedule: Q03HX024 (ip), vehicle: saline 100 % of control | dose: 100.0 mg/kg/injection, schedule: Q04DX003 (ip), vehicle: saline with Tween-80 109 % of control | dose: 100.0 mg/kg/injection, schedule: Q04DX003 (ip), vehicle: saline 104 % of control | dose: 100.0 mg/kg/injection, schedule: Q08DX002 (ip), vehicle: saline 104 % of control | dose: 200.0 mg/kg/injection, schedule: Q01DX001 (ip), vehicle: Klucel (hydroxypropylcellulose) (HPC) 110 % of control | dose: 200.0 mg/kg/injection, schedule: Q01DX001 (ip), vehicle: saline 100 % of control | dose: 200.0 mg/kg/injection, schedule: Q01DX001 (oral), vehicle: saline 100 % of control | dose: 200.0 mg/kg/injection, schedule: Q01DX009 (oral), vehicle: saline 104 % of control | dose: 200.0 mg/kg/injection, schedule: Q03HX008 (ip), vehicle: saline 100 % of control | dose: 200.0 mg/kg/injection, schedule: Q03HX016 (ip), vehicle: saline 100 % of control | dose: 200.0 mg/kg/injection, schedule: Q03HX024 (ip), vehicle: saline 100 % of control | dose: 200.0 mg/kg/injection, schedule: Q04DX003 (ip), vehicle: saline with Tween-80 104 % of control | dose: 200.0 mg/kg/injection, schedule: Q04DX003 (ip), vehicle: saline 100 % of control | dose: 200.0 mg/kg/injection, schedule: Q08DX002 (ip), vehicle: saline 104 % of control | dose: 400.0 mg/kg/injection, schedule: Q01DX001 (ip), vehicle: saline 100 % of control | dose: 400.0 mg/kg/injection, schedule: Q01DX001 (oral), vehicle: saline 109 % of control | dose: 400.0 mg/kg/injection, schedule: Q01DX009 (ip), vehicle: saline 90 % of control | dose: 400.0 mg/kg/injection, schedule: Q01DX009 (oral), vehicle: saline 100 % of control | dose: 400.0 mg/kg/injection, schedule: Q03HX008 (ip), vehicle: saline 109 % of control | dose: 400.0 mg/kg/injection, schedule: Q03HX016 (ip), vehicle: saline 100 % of control | dose: 400.0 mg/kg/injection, schedule: Q03HX024 (ip), vehicle: saline 100 % of control | dose: 400.0 mg/kg/injection, schedule: Q04DX003 (ip), vehicle: saline with Tween-80 118 % of control | dose: 400.0 mg/kg/injection, schedule: Q04DX003 (ip), vehicle: saline 104 % of control | dose: 400.0 mg/kg/injection, schedule: Q08DX002 (ip), vehicle: saline 104 % of control | dose: 800.0 mg/kg/injection, schedule: Q01DX001 (ip), vehicle: saline 109 % of control | dose: 800.0 mg/kg/injection, schedule: Q01DX001 (oral), vehicle: saline 100 % of control | dose: 800.0 mg/kg/injection, schedule: Q01DX009 (oral), vehicle: saline 113 % of control | dose: 800.0 mg/kg/injection, schedule: Q03HX008 (ip), vehicle: saline 109 % of control | dose: 800.0 mg/kg/injection, schedule: Q03HX016 (ip), vehicle: saline 100 % of control | dose: 800.0 mg/kg/injection, schedule: Q03HX024 (ip), vehicle: saline 100 % of control | dose: 800.0 mg/kg/injection, schedule: Q04DX003 (ip), vehicle: saline 114 % of control | dose: 800.0 mg/kg/injection, schedule: Q08DX002 (ip), vehicle: saline 104 % of control

CCOC(=O)C1=NN(C)C(=O)C1
inactive: dose: 100.0 mg/kg/injection, schedule: Q01DX001 (ip), vehicle: saline with Tween-80 99 % of control | dose: 200.0 mg/kg/injection, schedule: Q01DX001 (ip), vehicle: saline with Tween-80 115 % of control | dose: 400.0 mg/kg/injection, schedule: Q01DX001 (ip), vehicle: saline with Tween-80 104 % of control

CC(=O)N1C=Cc2ccccc2C1C1NC=Cc2ccccc21 (stereo unspecified)
inactive: dose: 50.0 mg/kg/injection, schedule: Q01DX005 (ip), vehicle: saline with Tween-80 96 % of control | dose: 100.0 mg/kg/injection, schedule: Q01DX005 (ip), vehicle: saline with Tween-80 94 % of control | dose: 200.0 mg/kg/injection, schedule: Q01DX005 (ip), vehicle: saline with Tween-80 88 % of control

CC(C)=CCCC(C)=CCON(C)C (mixture of isomers)
inactive: dose: 100.0 mg/kg/injection, schedule: Q04DX002 (ip), vehicle: saline with Tween-80 92 % of control | dose: 200.0 mg/kg/injection, schedule: Q04DX002 (ip), vehicle: saline with Tween-80 101 % of control

CCOc1cc(=O)cc2n(-c3cc(OCC)c(O)c(OCC)c3)c3ccccc3nc1-2
inactive: dose: 50.0 mg/kg/injection, schedule: Q01DX009 (ip), vehicle: suspension in saline 100 % of control | dose: 100.0 mg/kg/injection, schedule: Q01DX009 (ip), vehicle: suspension in saline 101 % of control | dose: 200.0 mg/kg/injection, schedule: Q01DX009 (ip), vehicle: suspension in saline 97 % of control

C[As](C)SCC1OC(n2cnc3c(N)ncnc32)C2OC(C)(C)OC12 (stereo unspecified)
inactive: dose: 12.5 mg/kg/injection, schedule: Q01DX009 (ip), vehicle: distilled water + Tween-80 101 % of control | dose: 25.0 mg/kg/injection, schedule: Q01DX009 (ip), vehicle: distilled water + Tween-80 100 % of control | dose: 50.0 mg/kg/injection, schedule: Q01DX009 (ip), vehicle: distilled water + Tween-80 110 % of control | dose: 100.0 mg/kg/injection, schedule: Q01DX009 (ip), vehicle: distilled water + Tween-80 110 % of control | dose: 200.0 mg/kg/injection, schedule: Q01DX009 (ip), vehicle: distilled water + Tween-80 101 % of control

Cc1cc(C)nc(/C=C/c2ccccc2)c1
inactive: dose: 60.0 mg/kg/injection, schedule: Q01DX005 (ip), vehicle: saline with Tween-80 104 % of control | dose: 120.0 mg/kg/injection, schedule: Q01DX005 (ip), vehicle: saline with Tween-80 105 % of control | dose: 240.0 mg/kg/injection, schedule: Q01DX005 (ip), vehicle: saline with Tween-80 106 % of control

COC(=O)C1CC2CCCCC2C1C(=O)OC (stereo unspecified)
inactive: dose: 100.0 mg/kg/injection, schedule: Q04DX003 (ip), vehicle: Klucel (hydroxypropylcellulose) (HPC) 89 % of control | dose: 200.0 mg/kg/injection, schedule: Q04DX003 (ip), vehicle: Klucel (hydroxypropylcellulose) (HPC) 87 % of control | dose: 400.0 mg/kg/injection, schedule: Q04DX003 (ip), vehicle: Klucel (hydroxypropylcellulose) (HPC) 89 % of control

CCCCCCCc1cc(=O)[nH]c(=S)[nH]1
inactive: dose: 60.0 mg/kg/injection, schedule: Q01DX005 (ip), vehicle: Klucel (hydroxypropylcellulose) (HPC) 96 % of control | dose: 120.0 mg/kg/injection, schedule: Q01DX005 (ip), vehicle: Klucel (hydroxypropylcellulose) (HPC) 95 % of control | dose: 240.0 mg/kg/injection, schedule: Q01DX005 (ip), vehicle: Klucel (hydroxypropylcellulose) (HPC) 89 % of control

CCCCCCCCCCCC[As](CCCCCCCCCCCC)SCC1OC(OC(C)=O)C(OC(C)=O)C(OC(C)=O)C1OC(C)=O (stereo unspecified)
inactive: [1] 111 % of control | [2] 104 % of control | [3] 105 % of control

CC(C)=CCSc1ccccc1
inactive: dose: 100.0 mg/kg/injection, schedule: Q04DX002 (ip), vehicle: Klucel (hydroxypropylcellulose) (HPC) 104 % of control | dose: 200.0 mg/kg/injection, schedule: Q04DX002 (ip), vehicle: Klucel (hydroxypropylcellulose) (HPC) 106 % of control | dose: 400.0 mg/kg/injection, schedule: Q04DX002 (ip), vehicle: Klucel (hydroxypropylcellulose) (HPC) 109 % of control

C#CC(C)ON1C(=O)c2ccccc2C1=O (stereo unspecified)
inactive: dose: 100.0 mg/kg/injection, schedule: Q01DX001 (ip), vehicle: other 109 % of control | dose: 200.0 mg/kg/injection, schedule: Q01DX001 (ip), vehicle: other 100 % of control | dose: 400.0 mg/kg/injection, schedule: Q01DX001 (ip), vehicle: other 100 % of control

COC(=O)C1CC(OC(C)=O)C2OC(C)(C)OC2C1OC(C)=O (stereo unspecified)
inactive: [1] 100 % of control | [2] 99 % of control | [3] 100 % of control
